pIC50: −log10 of the molar value.
These compounds were tested against T1, TLR9 (Homo sapiens, UniProt Q9NR96) (assay: huPBMC TLR9 Antagonist IFNα Assay). Details: human PBMCs stimulated with ODN2216 0.3 μM, 14-16 hrs; IFNα2b AlphaLISA read-out.
T1 construct: Fresh blood was collected from normal human donors; endogenous in cells; host or cells: human PBMCs from fresh donor blood
T1 sequence (Q9NR96 26-1032): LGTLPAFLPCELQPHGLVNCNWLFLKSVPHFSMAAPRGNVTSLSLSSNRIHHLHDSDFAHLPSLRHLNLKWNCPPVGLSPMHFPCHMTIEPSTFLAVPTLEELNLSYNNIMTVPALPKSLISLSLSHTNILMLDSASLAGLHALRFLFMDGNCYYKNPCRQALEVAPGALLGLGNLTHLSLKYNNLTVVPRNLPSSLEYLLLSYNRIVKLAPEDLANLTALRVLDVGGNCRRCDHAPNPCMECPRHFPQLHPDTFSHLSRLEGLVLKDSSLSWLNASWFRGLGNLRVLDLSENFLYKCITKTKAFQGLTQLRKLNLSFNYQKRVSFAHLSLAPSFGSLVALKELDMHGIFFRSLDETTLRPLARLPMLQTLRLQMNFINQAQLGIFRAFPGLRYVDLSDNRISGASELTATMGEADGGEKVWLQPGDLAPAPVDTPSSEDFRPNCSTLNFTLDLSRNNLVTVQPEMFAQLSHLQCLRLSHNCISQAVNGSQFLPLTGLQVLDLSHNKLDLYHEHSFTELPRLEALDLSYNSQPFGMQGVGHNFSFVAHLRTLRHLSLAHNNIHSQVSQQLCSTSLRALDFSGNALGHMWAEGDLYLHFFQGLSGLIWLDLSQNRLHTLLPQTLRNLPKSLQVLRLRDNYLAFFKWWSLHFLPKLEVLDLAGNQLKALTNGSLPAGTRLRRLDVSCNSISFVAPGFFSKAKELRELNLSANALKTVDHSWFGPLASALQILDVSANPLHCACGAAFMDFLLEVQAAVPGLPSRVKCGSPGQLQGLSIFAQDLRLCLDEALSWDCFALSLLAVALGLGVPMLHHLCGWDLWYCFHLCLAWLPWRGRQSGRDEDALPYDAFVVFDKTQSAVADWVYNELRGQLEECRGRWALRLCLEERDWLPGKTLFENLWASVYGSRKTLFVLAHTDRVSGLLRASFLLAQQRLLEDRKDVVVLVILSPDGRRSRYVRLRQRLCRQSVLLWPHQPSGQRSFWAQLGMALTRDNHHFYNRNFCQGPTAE
Type: cell-based
Description: Compounds were generally serially diluted (1/3) in DMSO and plated on sterile 384 well tissue culture plates and stored until ready for use. Each ten-point dilution was typically plated in triplicate in parallel rows.
Fresh blood was collected from normal human donors underwritten informed consent in heparinized syringes on the morning of the assay. The blood was diluted in RPMI-1640 medium and the white blood cells were separated from red blood cells by centrifugation (800 g 15′ 0 acceleration, 0 brake) on a Ficoll cushion. Peripheral blood mononuclear cells (PBMCs) were separated from platelets by a series of low-speed centrifugations (1000RPM 10′) in PBS+5% HI—FBS and 1 mM EDTA. Purified PBMCs were re-suspended in assay medium (RPMI-1640 w Glutamax (Invitrogen) supplemented with 5% HI—FBS, 10 mM HEPES, 50 uM β-mercaptoethanol, and 100 mG/L penicillin/streptomycin cocktail). Viable PBMCs were counted on a hemacytometer and kept on ice until ready for plating.
A 4× concentration (4 ug/ml or 40 ug/ml for TLR8 or TLR7 assays, respectively) of the TLR7/8 agonist ssRNA40 (IDT) was complexed with 10% DOTAP (Roche) in assay medium for 30 min prior to addition to the PBMC suspension (5 million cells/ml). After addition, the final concentration of ssRNA40 in the TLR7/8 stimulated PBMC suspension was 1 μg/ml for TLR8 assay, and 10 μg/mL for the TLR7 assay. The final DOTAP concentration was 2.5%. Diluted PBMCs (5 million cells/ml) were treated with 4×TLR9 agonist ODN2216 (Invivogen). Final concentration of ODN2216 in TLR9 stimulated PBMC suspension was 0.3 μM.
Agonist stimulated PBMCs were plated on the compound treated 384 well plates at 150,000 cells/well. Un-stimulated PBMCs were plated as controls on each plate. Plating volume was 40 μL per well. DMSO concentration in each well was 0.25%.
A separate plate, without compounds, with titrations of ssRNA40 and ODN2216 was included in every assay to measure agonist response of each donor's PBMC prep. Assay plates were placed in a tissue culture incubator (37° C., 5% CO2) for 14-16 hrs. After this incubation, the plates were centrifuged and stored at −20° C. until they were assayed.
IL-6 TR-FRET Assay for TLR8 activity: • 1) Cisbio Human IL-6 kit, 20,000 tests (62TNFPEC), and GNF High-Base TC 384 well plates (cat #789163G) were used; • 2) the Anti-TIL-6 Cryptate conjugate and the Anti-IL-6 XL665 conjugate were diluted 1:20 in Reconstitution Buffer; • 3) a 1:1 mixture of 3 μl/well Anti-IL-6 Cryptate conjugate and 3 μl/well Anti-IL-6 XL665 conjugate was prepared; • 4) 6 μl/well HTRF dilution mastermix was added to 6 μl of transferred supernatant samples in proxiplates; • 5) The plates were incubated for 3 hrs at rt in the dark; and • 6) the levels of IL-6 production was measured using an Envision plate reader (665 nm (emmission)/590 nm (excitation)) with HTRF settings and ratiometric read-out: (XL665 emission/Eu Cryptate emission)×10,000. IFNα2b AlphaLISA Assay for TLR7 or TLR9 activity After thawing the assay plates, 6 μL of supernatant samples were transferred to a low-volume AlphaPlate 384SW (Perkin-Elmer). The concentration of IFNα in supernatants was measured using the IFNα2b AlphaLISA Assay (Perkin-Elmer: AL297F). 3 μL of IFNα acceptor beads/biotinylated antibody solution was added first, using laboratory automation. After an hour incubation, […] of streptavidin […] bead solution was added. The plates containing this mixture were incubated in the dark for an hour and read on an appropriate plate reader at reading parameters set by the manufacturer. (Envision, EnSpire: Perkin-Elmer).

`Cn1ncc2c(N3CCc4c(cnn4CC45CCC(N)(CC4)CC5)C3)nc(N)nc21` [compound 11, 4-(1-((4-aminobicyclo[2.2.2]octan-1-yl)methyl)-6,7-dihydro-1H-pyrazolo[4,3-c]pyridin-5(4H)-yl)-1-methyl-1H-pyrazolo[3,4-d]pyrimidin-6-amine] and `Cn1ncc2c(N3CCc4nn(CC56CCC(N)(CC5)CC6)cc4C3)nc(N)nc21` [compound 12, 4-(2-((4-aminobicyclo[2.2.2]octan-1-yl)methyl)-6,7-dihydro-2H-pyrazolo[4,3-c]pyridin-5(4H)-yl)-1-methyl-1H-pyrazolo[3,4-d]pyrimidin-6-amine] cannot be ordered by pIC50: < 5.18 for the first, < 5.30 for the second.

First: Cc1nn(CC23CCC(N)(CC2)CC3)c2c1CN(c1nc(N)nc3c1cnn3C)CC2 [compound 13, 4-(1-((4-aminobicyclo[2.2.2]octan-1-yl)methyl)-3-methyl-6,7-dihydro-1H-pyrazolo[4,3-c]pyridin-5(4H)-yl)-1-methyl-1H-pyrazolo[3,4-d]pyrimidin-6-amine]
Second: Cc1c2c(nn1CC13CCC(N)(CC1)CC3)CCN(c1nc(N)nc3c1cnn3C)C2 [compound 14, 4-(2-((4-aminobicyclo[2.2.2]octan-1-yl)methyl)-3-methyl-6,7-dihydro-2H-pyrazolo[4,3-c]pyridin-5(4H)-yl)-1-methyl-1H-pyrazolo[3,4-d]pyrimidin-6-amine]
The pIC50 of the first is higher: 5.11 for the first, < 5.04 for the second. The first is the more potent here.

Compared with `Cc1nn(CC23CCC(N)(CC2)CC3)c2c1CN(c1nc(Cl)nc3cnn(C)c13)CC2` [compound 15, 4-((5-(5-chloro-1-methyl-1H-pyrazolo[4,3-d]pyrimidin-7-yl)-3-mehtyl-4,5,6,7-tetrahydro-1H-pyrazolo[4,3-c]pyridin-1-yl)methyl)bicyclo[2.2.2]octan-1-amine], `Cc1nc(N2CCc3c(c(C)nn3CC34CCC(N5CCCC5)(CC3)CC4)C2)c2cnn(C)c2n1` [compound 16, 1,6-dimethyl-4-(3-methyl-1-((4-(pyrrolidin-1-yl)bicyclo[2.2.2]octan-1-yl)methyl)-6,7-dihydro-1H-pyrazolo[4,3-c]pyridin-5(4H)-yl)-1H-pyrazolo[3,4-d]pyrimidine] is lower in pIC50: 5.90 for the first, < 5.00 for the second.

`Cc1nc(N2CCc3c(c(C)nn3CC34CCC(N5CCCC5)(CC3)CC4)C2)c2c(n1)c(C)nn2C` [compound 17, 1,3,5-trimethyl-7-(3-methyl-1-((4-(pyrrolidin-1-yl)bicyclo[2.2.2]octan-1-yl)methyl)-6,7-dihydro-1H-pyrazolo[4,3-c]pyridin-5(4H)-yl)-1H-pyrazolo[4,3-d]pyrimidine] and `Cc1nc(N2CCc3c(c(C)nn3CC34CCC(N5CCOCC5)(CC3)CC4)C2)c2c(n1)c(C)nn2C` [compound 25, 4-(4-((3-methyl-5-(1,3,5-trimethyl-1H-pyrazolo[4,3-d]pyrimidin-7-yl)-4,5,6,7-tetrahydro-1H-pyrazolo[4,3-c]pyridin-1-yl)methyl)bicyclo[2.2.2]octan-1-yl)morpholine] cannot be ordered by pIC50: < 5.00 for the first, < 5.09 for the second.

`COCCNC12CCC(Cn3nc(C)c4c3CCN(c3nc(C)nc5c(C)nn(C)c35)C4)(CC1)CC2` [compound 18, N-(2-methoxyethyl)-4-((3-methyl-5-(1,3,5-trimethyl-1H-pyrazolo[4,3-d]pyrimidin-7-yl)-4,5,6,7-tetrahydro-1H-pyrazolo[4,3-c]pyridin-1-yl)methyl)bicyclo[2.2.2]octan-1-amine] and `CCNCC(=O)NC12CCC(Cn3nc(C)c4c3CCN(c3nc(C)nc5c(C)nn(C)c35)C4)(CC1)CC2` [compound 22, 2-(ethylamino)-N-(4-((3-methyl-5-(1,3,5-trimethyl-1H-pyrazolo[4,3-c]pyrimidin-7-yl)-4,5,6,7-tetrahydro-1H-pyrazolo[4,3-c]pyridin-1-yl)methyl)bicyclo[2.2.2]octan-1-yl)acetamide] cannot be ordered by pIC50: < 5.00 for the first, < 5.00 for the second.

`Cc1nc(N2CCc3c(c(C)nn3CC34CCC(N5CCOCC5)(CC3)CC4)C2)c2cnn(C)c2n1` [compound 19, 4-(4-((5-(1,6-dimethyl-1H-pyrazolo[3,4-d]pyrimidin-4-yl)-3-methyl-4,5,6,7-tetrahydro-1H-pyrazolo[4,3-c]pyridin-1-yl)methyl)bicyclo[2.2.2]octan-1-yl)morpholine] and `Cc1nc(N2CCc3c(c(C)nn3CC34CCC(N5CCOCC5)(CC3)CC4)C2)c2cn[nH]c2n1` [compound 21, 4-(4-((3-methyl-5-(6-methyl-1H-pyrazolo[3,4-d]pyrimidin-4-yl)-4,5,6,7-tetrahydro-1H-pyrazolo[4,3-c]pyridin-1-yl)methyl)bicyclo[2.2.2]octan-1-yl)morpholine] cannot be ordered by pIC50: < 5.00 for the first, < 5.00 for the second.

`CCNCC(=O)NC12CCC(Cn3nc(C)c4c3CCN(c3nc(C)nc5[nH]ncc35)C4)(CC1)CC2` [compound 20, 2-(ethylamino)-N-(4-((3-methyl-5-(6-methyl-1H-pyrazolo[3,4-d]pyrimidin-4-yl)-4,5,6,7-tetrahydro-1H-pyrazolo[4,3-c]pyridin-1-yl)methyl)bicyclo[2.2.2]octan-1-yl)acetamide] and `Cc1nc(N2CCc3c(c(C)nn3CC34CCC(NC(=O)CCN(C)C)(CC3)CC4)C2)c2c(n1)c(C)nn2C` [compound 24, 3-(dimethyalmino)-N-(4-((3-methyl-5-(1,3,5-trimethyl-1H-pyrazolo[4,3-d]pyrimidin-7-yl)-4,5,6,7-tetrahydro-1H-pyrazolo[4,3-c]pyridin-1-yl)methyl)bicyclo[2.2.2]octan-1-yl)propanamide] cannot be ordered by pIC50: < 5.03 for the first, < 5.13 for the second.

`Cc1nc(N2CCc3c(c(C)nn3CC34CCC(NCC5COC5)(CC3)CC4)C2)c2c(n1)c(C)nn2C` [compound 23, 4-((3-methyl-5-(1,3,5-trimethyl-1H-pyrazolo[4,3-c]pyrimidin-7-yl)-4,5,6,7-tetrahydro-1H-pyrazolo[4,3-c]pyridin-1-yl)methyl)-N-(oxetan-3-ylmethyl)bicyclo[2.2.2]octan-1-amine] and `Cc1nc(N2CCc3c(c(C)nn3CC34CCC(NC5CCC5)(CC3)CC4)C2)c2c(n1)c(C)nn2C` [compound 27, N-cyclobutyl-4-((3-methyl-5-(1,3,5-trimethyl-1H-pyrazolo[4,3-d]pyrimidin-7-yl)-4,5,6,7-tetrahydro-1H-pyrazolo[4,3-c]pyridin-1-yl)methyl)bicyclo[2.2.2]octan-1-amine] cannot be ordered by pIC50: < 5.00 for the first, < 5.00 for the second.
